Reference: patent publication US20250161338A1, “Compounds for Anti-aging Intervention” (AGENCY FOR SCIENCE, TECHNOLOGY AND RESEARCH, priority 2022, published 2025)
Counter-ions that a name gives are not always drawn.

What was measured:
[1] = tested on: prototrophic yeast strain (CEN.PK113-7D); test: Propidium iodide fluorescence-based CLS method in yeast (incl. high-throughput screening); type: cell-based, Saccharomyces cerevisiae; details: concentration tested 100 μM; for Yeast CLS increase: Yes/No call of the screen; for PI intensity: solvent DMSO or water, chronological age point Day 7 (72 h growth = Day 1), lower = more survival;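 on PI intensity: untreated reference is eight DMSO and water control wells per plate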
Procedure: Yeast strain was recovered from frozen glycerol stock at 30° C. on YPD agar medium. Yeast was left to propagate in SD medium overnight at 30° C. with shaking at 220 revolutions per minute (rpm). Cells propagated overnight were diluted to a starting optical density at 600 nm (OD600) of approximately 0.2 in fresh SD medium to begin the chronological lifespan (CLS) experiments.
(§1) CLS experiments were performed in 96-well plates with 200 μL yeast culture. Cellular inoculums were transferred into 96-well plates containing serially double-diluted concentrations (0 to 10 nM) of rapamycin. Cellular inoculum was transferred into 96-well plates containing serially double-diluted concentrations (0 to 8 mM) of 2,5-anhydro-D-mannitol, D-fructose, D-mannitol, D-maltose, and D-sorbitol in SD medium. Cells were incubated at 30° C., and the growth was measured at different time points. […] Cell survival was quantified at various age time points by three different approaches: (i) PI fluorescence-based method, (ii) outgrowth in YPD liquid medium, and (iii) spotting assay (FIG. 1).
Yeast cells (40 μL) from different age time points were transferred into a second 96-well plate (different to the 96-well plate in which the CLS analysis as outlined above was performed). Cells were washed and incubated in 100 μL 1×phosphate buffered saline (PBS) with propidium iodide (PI) (5 μg/mL) for 15 minutes in the dark. Positive and negative control samples were included for quantitative analysis. Positive control (cells boiled at 100° C. for 15 minutes) was PI-stained and processed in the same 96-well plate. Samples without PI-stained cells served as the negative control. After incubation, cells were washed and resuspended in 100 μL PBS. The fluorescence reading of the samples (excitation and emission wavelengths at 535 nm and 617 nm, respectively) and OD600 were measured with a microplate reader (BioTek, Winooski, Vermont, United States). The fluorescence intensity of each sample was normalized with OD600. The background fluorescence signal of the unstained negative sample was subtracted from the normalized fluorescence intensity of each sample. The obtained fluorescence intensity of the positive control (boiled dead cells) was considered 0% cell survival. Cell death was validated by allowing the boiled dead cells to grow in medium. Cell survival at different age time points of samples were calculated by normalizing the fluorescence intensity with positive control sample (boiled cells).
High-throughput screening of various chemicals was tested using the same protocol for the propidium iodide fluorescence-based method as described above. The prototrophic yeast strain (CEN.PK113-7D) was grown in the synthetic defined medium with different chemical reagents at their respective single testing concentration (Table 1) in addition to eight replicates of DMSO and water controls in 96-well plates at 30° C.

[2] = tested on: prototrophic yeast strain (CEN.PK113-7D); test: Yeast outgrowth in YPD liquid medium (CLS of aged cells); type: cell-based, Saccharomyces cerevisiae; details: for Outgrowth: concentration tested 100 μM, OD600 nm after 24 h in YPD at 30° C., age point day 14; for aged cell survival in yeast: various concentrations, outgrowth relative to Day 2 (FIGS. 22A to D)
Procedure: as §1
Outgrowth (OD600) of aged cells was measured by the microplate reader. Quantification of cell survival for each age point was determined as relative to Day 1 (considered 100% cell survival). This quantification was performed by using the formula,
[formula] • where OutgrowthDay n refers to the OD600 nm absorbance reading recorded on a specific day, OutgrowthDay 1 refers to the OD600 nm absorbance reading recorded on the first day where 100% cell survival is assumed.
The CLS of the aged cells was further determined by the yeast outgrowth in YPD liquid medium method as described above. […] At chronological age point day 14, 3-μL of culture were transferred to a second 96-well plate containing 200 μL YPD medium.

| Molecule | Yeast CLS increase [1] | PI intensity [1] | Outgrowth [2] | aged cell survival in yeast [2] |
| --- | --- | --- | --- | --- |
| C#CC1(O)CC[C@H]2[C@@H]3CCC4=CC(=O)CC[C@@H]4[C@H]3CC[C@@]21CC (mixture of isomers) [Norgestrel, reference compound] | No | 75,338.8 | 0.1 |  |
| O=C(O)C(O)Cc1ccccc1 (racemic) [DL-3-Phenyllactic acid] | No | 65,266.9 | 0.1 |  |
| C[S+](C)CCC(N)C(=O)O.[Cl-] (racemic) [DL-Methionine methylsulfonium (chloride)] | No | 66,281.7 | 0.1 |  |
| CC(C)(CO)C(O)C(=O)NCCCO (racemic) [DL-Panthenol] | No | 71,468.6 | 0.1 |  |
| NC(CO)C(=O)O (racemic) [DL-Serine] | Yes | 33,155.7 | 1.1 |  |
| O=C[C@H](O)[C@H](O)[C@H](O)CO (single isomer, unassigned) [D-Ribose(mixture of isomers)] | No | 60,023.1 | 0.1 |  |
| O=C(O)c1ccc(O)cc1O [2,4-Dihydroxybenzoic acid] | No | 76,326.3 | 0.1 |  |
| O=C(O)c1ccco1 [2-Furoic acid] | No | 72,748.2 | 0.1 |  |
| Oc1ccc2ccccc2c1 [2-Naphthol] | No | 72,298.9 | 0.1 |  |
| CCCC(=O)C(=O)O [2-Oxovaleric acid] | No | 61,246.4 | 0.1 |  |
| CC(C(=O)O)c1ccccc1 (stereo not shown) [2-Phenylpropionic acid] | No | 66,998.4 | 0.1 |  |
| Nc1ncnc2c1ncn2[C@H]1C[C@H](O)[C@@H](CO)O1 [2′-Deoxyadenosine] | No | 70,796.4 | 0.1 |  |
| COc1ccc(C=CC(=O)O)cc1OC [3,4-Dimethoxycinnamic acid] | No | 70,914.2 | 0.1 |  |
| COc1ccc(CC(=O)O)cc1OC [3,4-Dimethoxyphenylacetic acid] | No | 70,394.7 | 0.1 |  |
| O=C(O)c1cc(O)cc(O)c1 [3,5-Dihydroxybenzoic acid] | No | 59,369.7 | 0.1 |  |
| N[C@@H](Cc1ccc(O)c(Cl)c1)C(=O)O [3-Chloro-L-tyrosine] | No | 67,122.0 | 0.1 |  |
| CCc1ccc(O)cc1 [4-Ethylphenol] | No | 58,041.7 | 0.1 |  |
| COc1ccc(C=CC(=O)O)cc1 [4-Methoxycinnamic acid] | No | 89,890.5 | 0.1 |  |
| Cc1cc(=O)oc2cc(O)ccc12 [4-Methylumbelliferone] | No | 90,234.6 | 0.1 |  |
| CC(=O)c1ccc(O)c(C(=O)O)c1 [5-Acetylsalicylic acid] | No | 63,538.6 | 0.1 |  |
| O=c1[nH]cc(F)c(=O)[nH]1 [5-fluorouracil, reference compound] |  |  |  | survived longer as compared to those without treatment |

| Molecule | Yeast CLS increase [1] | PI intensity [1] | Outgrowth [2] | aged cell survival in yeast [2] |
| --- | --- | --- | --- | --- |
| CC(C)CCC[C@@H](C)[C@H]1CC[C@H]2[C@@H]3CC[C@H]4CC(=O)CC[C@]4(C)[C@H]3CC[C@]12C [5α-Cholestan-3-one] | No | 62,022.6 | 0.1 |  |
| C[C@H](O)[C@H](O)c1cnc2nc(N)[nH]c(=O)c2n1 [6-Biopterin] | No | 75,974.5 | 0.1 |  |
| CC(C)CCC[C@](C)(O)[C@H]1CC[C@H]2[C@@H]3CC=C4C[C@@H](O)CC[C@]4(C)[C@H]3CC[C@@]21C [20(S)-Hydroxycholesterol] | No | 75,450.9 | 0.1 |  |
| NC[C@H](CC(=O)O)c1ccc(Cl)cc1 [(R)-Baclofen, reference compound] | No | 61,049.3 | 0.1 |  |
| CC(C)=CCC[C@@H](C)CCO [(R)-Citronellol] | No | 75,290.6 | 0.1 |  |
| O=C(O)[C@H]1CCCN1 [(R)-pyrrolidine-2-carboxylic acid] | No | 80,551.7 | 0.1 |  |
| O=C(O)[C@@H](O)Cc1ccccc1 [(S)-2-Hydroxy-3-phenylpropanoic acid] | No | 72,969.5 | 0.1 |  |
| Cn1cc(C[C@H](N)C(=O)O)c2ccccc21 [(S)-Indoximod] | No | 78,648.2 | 0.1 |  |
| Oc1cc(O)c2c(c1)O[C@H](c1cc(O)c(O)c(O)c1)[C@H](O)C2 [(−)-Epigallocatechin] | No | 62,025.6 | 0.1 |  |
| N[C@H](C(=O)O)[C@@H]1CC(Cl)=NO1 [Acivicin] | Yes | 41,066.2 | 1.0 |  |
| CCCCC[C@H](CC(=O)NO)C(=O)N[C@H](C(=O)N1CCC[C@H]1CO)C(C)C [Actinonin] | No | 75,254.2 | 0.1 |  |
| COCCCOc1cc(C[C@@H](C[C@H](N)[C@@H](O)C[C@H](C(=O)NCC(C)(C)C(N)=O)C(C)C)C(C)C)ccc1OC.COCCCOc1cc(C[C@@H](C[C@H](N)[C@@H](O)C[C@H](C(=O)NCC(C)(C)C(N)=O)C(C)C)C(C)C)ccc1OC.O=C(O)/C=C/C(=O)O [Aliskiren (hemiumarate), reference compound] | No | 73,607.3 | 0.1 |  |
| O=C1c2c(O)cccc2[C@@H]([C@@H]2O[C@H](CO)[C@@H](O)[C@H](O)[C@H]2O)c2cc(CO)cc(O)c21 [Aloin B] | No | 89,712.0 | 0.1 |  |
| Nc1c(Br)cc(Br)cc1CN[C@H]1CC[C@H](O)CC1 [Ambroxol (hydrochloride), reference compound] | No | 63,509.0 | 0.1 |  |
| NCCCNCCSP(=O)(O)O [Amifostine, reference compound] | No | 69,013.2 | 0.2 |  |
| CC(CCC(=O)NCC(=O)O)C1CCC2C3CCC4CC(O)CCC4(C)C3CC(O)C12C (stereo not shown) [Glycodeoxycholic Acid] |  | 68,981.6 |  |  |
| COc1c(O)cc(O)c2c(=O)cc(-c3ccccc3)oc12 [Wogonin] | No | 76,348.2 |  |  |
| CC(C)c1c(C(=O)Nc2ccccc2)c(-c2ccccc2)c(-c2ccc(F)cc2)n1CC[C@@H](O)C[C@@H](O)CC(=O)O [atorvastatin, reference compound] |  |  |  | survived longer as compared to those without treatment |
| CN(Cc1cnc2nc(N)nc(N)c2n1)c1ccc(C(=O)N[C@@H](CCC(=O)O)C(=O)O)cc1 [methotrexate, reference compound] |  |  |  | survived longer as compared to those without treatment |
| hemin [reference compound] |  |  |  | survived longer as compared to those without treatment |
